Measurements reported in patent US10323000B2, “Indole derivatives and their use in neurodegenerative diseases” (priority 2014, dated 2019).
Where two headings read alike, the source gives them in different places.

What was measured:
human P2X7 receptor = human P2X7 receptor (Homo sapiens (Human), UniProt Q99572); experiment: Pore permeation assay (YO PRO dye uptake); assay type: cell-based
Procedure: Agonist-induced pore formation was determined by measuring cellular uptake of YO PRO fluorescence dye in HEK293 transfected with human P2X7 receptor. A HEK293 cell over expressing human P2X7 was harvested using HQTase reagent to detach the cells from T75 cm flask. The harvested cells are centrifuged @1200 rpm for 5 min at room temperature. The viability of cells was determined by Trypan blue dye and the cells are plated @10,000 cell/well in 50 ul volume in a 384W BD Poly lysine coated plate and incubated overnight at 37 C. […] The plate was centrifuged at 1000 rpm for 5 seconds and incubated at room temperature for 30 minutes. The uptake of YO PRO dye into the cells was measured using Envision Fluorescence plate reader instrument (Perkin Elmer).

[1] = target: P2X7 (IL-1β release from THP-1 cells) (Homo sapiens (Human), UniProt Q99572); experiment: IL-1β release assay; assay type: cell-based
Procedure: IL-1β release assay: The activation of P2X7 by ATP leads to a fast transient activation of cells resulting in influx of Ca^2+ followed by conversion of pro-IL-1β to active IL-1β. The functional activity of P2X7 compounds was measured by the release of mature […] in the culture medium of THP-1 cells, detected by sandwich ELISA. […] THP-1 cells were harvested from the flask in 50 ml by centrifugation for 3 min at 100 g. The cells were resuspended to 2×10^5 cells/ml in medium supplemented with 0.5 μM PMA and incubated. The cells were washed and resuspended to 1.5×10^5 cells/ml in medium complemented with 10 ng/ml LPS, and the cells were primed for 4 h at 37° C., 5% CO2. After addition of 20 μL of prediluted test compounds, blank, standard and control reagents, cells were incubated for a further 20 min at 37° C. and stimulated with 0.8 mM BzATP for 30 minutes. The cells were centrifuged, supernatant was collected and the presence of mature IL-1β was detected using Dual human IL-1b kit following manufacturer's instruction. The tetrahydrobenzodiazepine analogs effectively modulated the activity of P2X7 in the cells as measured by the levels of pro-inflammatory cytokine IL-1β, which is released by the activation of P2X7 receptor.

[2] = HEK293 transfected with human P2X7, BzATP 10 uM, YO PRO dye uptake, read-out: hP2X7 IC50
[3] = THP-1 cells, LPS primed, 0.8 mM BzATP, mature IL-1β by sandwich ELISA, read-out: hTHP-1/IL-ib IC50

Chain of P2X7 (IL-1β release from THP-1 cells) (Q99572 whole entry): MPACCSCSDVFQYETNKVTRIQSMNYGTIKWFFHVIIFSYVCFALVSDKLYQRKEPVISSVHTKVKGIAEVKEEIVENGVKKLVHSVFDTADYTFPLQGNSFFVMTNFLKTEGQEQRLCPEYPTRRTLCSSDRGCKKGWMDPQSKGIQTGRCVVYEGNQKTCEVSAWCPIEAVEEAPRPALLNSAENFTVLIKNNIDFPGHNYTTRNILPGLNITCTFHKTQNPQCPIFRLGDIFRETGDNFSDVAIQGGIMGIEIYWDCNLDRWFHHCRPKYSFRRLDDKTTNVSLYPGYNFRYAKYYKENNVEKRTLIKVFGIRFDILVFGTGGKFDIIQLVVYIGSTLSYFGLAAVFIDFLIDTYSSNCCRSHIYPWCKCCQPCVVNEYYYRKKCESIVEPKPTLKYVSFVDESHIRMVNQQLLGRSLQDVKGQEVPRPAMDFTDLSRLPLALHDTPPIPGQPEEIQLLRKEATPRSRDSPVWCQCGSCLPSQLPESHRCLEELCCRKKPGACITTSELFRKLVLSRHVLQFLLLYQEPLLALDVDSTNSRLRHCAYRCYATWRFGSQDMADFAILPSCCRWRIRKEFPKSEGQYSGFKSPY
Chain of human P2X7 receptor (Q99572 whole entry): as above

SMILES | IC50 (human P2X7 receptor) [nM] | IC50 [1] [nM] | IC50 (human P2X7 receptor; [2]) [nM] | IC50 [1, 3] [nM]
O=C(NCC1CCC(F)(F)CC1)c1cn(CC2COCCO2)c2cccc(Cl)c12 (stereo not drawn) [Compound 150, 1-((1,4-dioxan-2-yl)methyl)-4-chloro-N-((4,4-difluorocyclohexyl)methyl)-1H-indole-3-carboxamide] | 10 to 100 | 10 to 100 |  | 
O=C(NC[C@]1(O)CCCC(F)(F)C1)c1cn(CCN2CCCC2=O)c2cccc(Cl)c12 [Compound 187, (S)-4-chloro-N-((3,3-difluoro-1-hydroxycyclohexyl)methyl)-1-(2-(2-oxopyrrolidin-1-yl)ethyl)-1H-indole-3-carboxamide] | 10 to 100 | 101 to 500 |  | 
CC(C(=O)N(C)C)n1cc(C(=O)NCC2CCC(F)(F)CC2)c2c(Cl)cccc21 (stereo not drawn) [Compound 200, 4-chloro-N-((4,4-difluorocyclohexyl)methyl)-1-(1-(dimethylamino)-1-oxopropan-2-yl)-1H-indole-3-carboxamide] |  | 10 to 100 | < 10 | 
CC1CC(F)(F)CC(O)(CNC(=O)c2cn(C3COC3)c3cccc(Cl)c23)C1 (stereo not drawn) [Compound 89, 4-chloro-N-((3,3-difluoro-1-hydroxy-5-methylcyclohexyl)methyl)-1-(oxetan-3-yl)-1H-indole-3-carboxamide] | 101 to 500 | 500 to 999 |  | 
O=C(NCC1CCCC2(CC2)C1)c1cn(C2COC2)c2cccc(Cl)c12 (stereo not drawn) [Compound 68, 4-chloro-1-(oxetan-3-yl)-N-(spiro[2.5]octan-5-ylmethyl)-1H-indole-3-carboxamide] |  | 10 to 100 | < 10 | 
O=C(NCC1CCC(F)(F)CC1)c1cn(CC2CCNCC2)c2cccc(Cl)c12 [Compound 175, 4-chloro-N-((4,4-difluorocyclohexyl)methyl)-1-(piperidin-4-ylmethyl)-1H-indole-3-carboxamide] | 101 to 500 | 101 to 500 |  | 
O=C(NCC1CCC(F)(F)CC1)c1cn(C[C@H]2CCN2)c2cccc(Cl)c12 [Compound 123, (R)-1-(azetidin-2-ylmethyl)-4-chloro-N-((4,4-difluorocyclohexyl)methyl)-1H-indole-3-carboxamide] | 101 to 500 | 101 to 500 |  | 
O=C(NCC1CCC(F)(F)CC1)c1cn(CC(=O)N2CCOCC2)c2cccc(Cl)c12 [Compound 190, 4-Chloro-1-(2-morpholin-4-yl-2-oxo-ethyl)-1H-indole-3-carboxylic acid (4,4-difluoro-cyclohexylmethyl)-amide] |  |  | 101 to 500 | 101 to 500
O=C(NCC1CCC(F)(F)CC1)c1cn(CC2CCCN2C2CC2)c2cccc(Cl)c12 (stereo not drawn) [Compound 197, 4-chloro-1-((1-cyclopropylpyrrolidin-2-yl)methyl)-N-((4,4-difluorocyclohexyl)methyl)-1H-indole-3-carboxamide] | 10 to 100 | 10 to 100 |  | 
C[C@H]1CCC[C@@](O)(CNC(=O)c2cn(C3COC3)c3cccc(Cl)c23)C1 [Compound 90, 4-chloro-N-(((1S,3S)-1-hydroxy-3-methylcyclohexyl)methyl)-1-(oxetan-3-yl)-1H-indole-3-carboxamide] |  | 10 to 100 | < 10 | 
O=C(NCC1(O)CCCC(F)(F)C1)c1cn(C2CCNC2)c2cccc(Cl)c12 (stereo not drawn) [Compound 120, 4-chloro-N-((3,3-difluoro-1-hydroxycyclohexyl)methyl)-1-(pyrrolidin-3-yl)-1H-indole-3-carboxamide] | 10 to 100 | 10 to 100 |  | 
O=C(NCC1CCC(F)(F)CC1)c1cn(CC2CCOCC2)c2cccc(Cl)c12 [Compound 168, 4-chloro-N-((4,4-difluorocyclohexyl)methyl)-1-((tetrahydro-2H-pyran-4-yl)methyl)-1H-indole-3-carboxamide] | 10 to 100 | 101 to 500 |  | 
CC1(C)CCCC(O)(CNC(=O)c2cn(C3CCOC3)c3cccc(Cl)c23)C1 (stereo not drawn) [Compound 107, 4-Chloro-1-(tetrahydro-furan-3-yl)-1H-indole-3-carboxylic acid (1-hydroxy-3,3-dimethyl-cyclohexylmethyl)-amide] | 10 to 100 | 101 to 500 |  | 
COCCn1cc(C(=O)NCC2(OC)CCC(F)(F)CC2)c2c(Cl)cccc21 [Compound 17, 4-Chloro-1-(2-methoxy-ethyl)-1H-indole-3-carboxylic acid (4,4-difluoro-1-methoxy-cyclohexylmethyl)-amide] | 10 to 100 | 101 to 500 |  | 
O=C(NCCCC(F)(F)F)c1cn(C2COC2)c2cccc(Cl)c12 [Compound 73, 4-Chloro-1-oxetan-3-yl-1H-indole-3-carboxylic acid (4,4,4-trifluoro-butyl)-amide] | 101 to 500 | 500 to 999 |  | 
CCC1CCCC(O)(CNC(=O)c2cn(CC3CCCO3)c3cccc(Cl)c23)C1 (stereo not drawn) [Compound 137, 4-chloro-N-((3-ethyl-1-hydroxycyclohexyl)methyl)-1-((tetrahydrofuran-2-yl)methyl)-1H-indole-3-carboxamide] | 101 to 500 |  |  | > 1000
CC1CCCC(O)(CNC(=O)c2cn(C3COC3)c3cccc(Cl)c23)C1 (stereo not drawn) [Compound 83, 4-chloro-N-((1-hydroxy-3-methylcyclohexyl)methyl)-1-(oxetan-3-yl)-1H-indole-3-carboxamide] |  | 10 to 100 | < 10 | 
O=C(NCC1(O)CCCC(C(F)(F)F)C1)c1cn(C2CCOC2)c2cccc(Cl)c12 (stereo not drawn) [Compound 100, 4-chloro-N-((1-hydroxy-3-(trifluoromethyl)cyclohexyl)methyl)-1-(tetrahydrofuran-3-yl)-1H-indole-3-carboxamide] |  |  | > 1000 | > 1000
CN1CCOCC1Cn1cc(C(=O)NCC2CCC(F)(F)CC2)c2c(Cl)cccc21 (stereo not drawn) [Compound 184, 4-chloro-N-((4,4-difluorocyclohexyl)methyl)-1-((4-methylmorpholin-3-yl)methyl)-1H-indole-3-carboxamide] | 101 to 500 | 101 to 500 |  | 
O=C(NCC1CCC(F)(F)CC1)c1cn(C[C@H]2CCCN2)c2cccc(Cl)c12 [Compound 154, (R)-4-chloro-N-((4,4-difluorocyclohexyl)methyl)-1-(pyrrolidin-2-ylmethyl)-1H-indole-3-carboxamide] | 10 to 100 | 10 to 100 |  | 
CC1CC(O)(CNC(=O)c2cn(C3CCOC3)c3cccc(Cl)c23)CCC1(F)F (stereo not drawn) [Compound 106, 4-Chloro-1-(tetrahydro-furan-3-yl)-1H-indole-3-carboxylic acid (4,4-difluoro-1-hydroxy-3-methyl-cyclohexylmethyl)-amide] | 500 to 999 | 101 to 500 |  | 
O=C(NCC1C[C@@H]2CC[C@H]1C2)c1cn(C2COC2)c2cccc(Cl)c12 (stereo partly drawn) [Compound 59, 4-Chloro-1-oxetan-3-yl-1H-indole-3-carboxylic acid ((1S,4R)-1-bicyclo[2.2.1]hept-2-ylmethyl)-amide] | 10 to 100 | 10 to 100 |  | 
O=C(NCC1CCCOC1)c1cn(C2COC2)c2cccc(Cl)c12 (stereo not drawn) [Compound 74, 4,4-Chloro-1-oxetan-3-yl-1H-indole-3-carboxylic acid (tetrahydro-pyran-3-ylmethyl)-amide] |  |  | > 1000 | > 1000
O=C(NC[C@@]1(O)CCCC(F)(F)C1)c1cn(CCN2CCCC2=O)c2cccc(Cl)c12 [Compound 186, (R)-4-chloro-N-((3,3-difluoro-1-hydroxycyclohexyl)methyl)-1-(2-(2-oxopyrrolidin-1-yl)ethyl)-1H-indole-3-carboxamide] |  |  | > 1000 | > 1000
O=C(NCC1(O)CCCC(F)(F)C1)c1cn(CC2CCCO2)c2cccc(Cl)c12 (stereo not drawn) [Compound 139, 4-chloro-N-((3,3-difluoro-1-hydroxycyclohexyl)methyl)-1-((tetrahydrofuran-2-yl)methyl)-1H-indole-3-carboxamide] | 10 to 100 | 10 to 100 |  | 
CN1CC(F)(F)C[C@H]1Cn1cc(C(=O)NCC2CCC(F)(F)CC2)c2c(Cl)cccc21 [Compound 180, (S)-4-chloro-1-((4,4-difluoro-1-methylpyrrolidin-2-yl)methyl)-N-((4,4-difluorocyclohexyl)methyl)-1H-indole-3-carboxamide] | 101 to 500 | 500 to 999 |  | 
C[C@@H](NC(=O)c1cn(C2COC2)c2cccc(Cl)c12)[C@@]12C[C@@H]3C[C@@H](C[C@@](O)(C3)C1)C2 [Compound 61, 4-Chloro-1-oxetan-3-yl-1H-indole-3-carboxylic acid [(3-hydroxy-adamantan-1-yl)-ethyl]-amide] |  |  | 500 to 999 | 
O=C(NC(C1CCCC1)C(F)(F)F)c1cn(C2COC2)c2cccc(Cl)c12 (stereo not drawn) [Compound 42, 4-chloro-N-(1-cyclopentyl-2,2,2-trifluoroethyl)-1-(oxetan-3-yl)-1H-indole-3-carboxamide] |  |  | > 1000 | 
